The test system of the first assay is blood platelets (thrombocytes). As to the kind of experiment: Inhibition of ADP-induced blood platelet aggregation in platelet-rich plasma (aggregometer measurement, Born). It counts as cell-based, healthy testees.
Conditions: not given
Consider `O=[N+]([O-])OCC(CO[N+](=O)[O-])O[N+](=O)[O-]` [GTN, nitroglycerine, reference compound], for which the “inhibition of blood platelet aggregation (result in words)” value was “inactive”.

The assay is the same for the next values; noted with them: PRP from citrate stabilized venous blood, 37°C, test substance incubated three minutes, ADP 2 to 4 µM as pro-aggregating substance; linear regression; read-out: IC₅₀.
Regarding `COC(=O)C(C)NC(=O)[N-]c1n[n+](-c2cccc(Cl)c2C)no1` (stereo not shown) [Example 10, 3-(3-chloro-2-methylpheny1)-1,2,3,4-oxatriazole-5-(N-2-carbamoylpropionic acid methyl ester)imine], the IC50 came out at 2310 nM.

Consider `CCOC(=O)C(Cc1ccccc1)NC(=O)[N-]c1n[n+](-c2cccc(Cl)c2C)no1` (stereo not shown) [Example 9, 3-(3-chloro-2-methylphenyl)-1,2,3,4-oxatriazole-5(N-2-carbamoyl-3-phenylpropionic acid ethyl ester)imine], for which the IC50 came out at 7900 nM.

`CCOC(=O)c1ccc(NC(=O)[N-]c2n[n+](-c3cccc(Cl)c3C)no2)cc1` [Example 5, 3-(3-chloro-2-methylphenyl)-1,2,3,4-oxatriazole-5-(N-4-carbethoxyphenylcarbamoyl)imine]: the IC50 worked out at 2980 nM.

On to `CCOC(=O)NC(=O)[N-]c1n[n+](-c2cccc(Cl)c2C)no1` [Example 7, 3-(3-chloro-2-methylphenyl)-1,2,3,4-oxatriazole-5-(N-carbethoxy-carbamoyl)imine], for which the IC50 is 160 nM.

As to `Cc1c(Cl)cccc1-[n+]1noc([N-]S(=O)(=O)C[C@]23CCC(CC2=O)C3(C)C)n1` [Example 4, 3-(3-chloro-2-methylphenyl)-1,2,3,4-oxatriazole-5-(N-(1S)-(+)-10-camphorylsulphamoyl)imine], the IC50 is 80 nM.

Consider `CCOC(=O)CNC(=O)[N-]c1n[n+](-c2cccc(Cl)c2C)no1` [Example 8, 3-(3-chloro-2-methylphenyl)-1,2,3,4-oxatriazole-5-(N-carbethoxymethylcarbamoyl)imine], for which the IC50 was determined as 7600 nM.

With `CC(=O)Nc1ccc(S(=O)(=O)[N-]c2n[n+](-c3cccc(Cl)c3C)no2)cc1` [Example 3, 3-(3-chloro-2-methylphenyl)-1,2,3,4-oxatriazole-5-(N-4-acetylaminophenylsulphamoyl)imine], the IC50 was found to be 1010 nM.

For the compound `Cc1c(Cl)cccc1-[n+]1noc([N-]C(=O)NS(=O)(=O)c2ccccc2)n1` [Example 1, 3-(3-chloro-2-methylphenyl)-1,2,3,4-oxatriazole-5-(N-phenylsulphonylcarbamoyl) imine], the IC50 turned out to be 490 nM.

On to `CC(=O)Nc1nc(C)c(S(=O)(=O)[N-]c2n[n+](-c3cccc(Cl)c3C)no2)s1` [Example 2, 3-(3-chloro-2-methylphenyl)-1,2,3,4-oxatriazole-5-(N-2-acetamido-4-methyl-5-thiazolesulphamoyl)imine], for which the IC50 was 370 nM.

As to `[NH-]c1c[n+](N2CCOCC2)no1` [SIN-1, reference compound], the IC50 turned out to be 3900 nM.

The same assay, now with this note: read-out: IC₅₀.
For the compound `O=[N+]([O-])OCC(CO[N+](=O)[O-])O[N+](=O)[O-]` [GTN, nitroglycerine, reference compound], the IC50 stood at 100000 nM.

On to `COc1ccc(S(=O)(=O)NC(=O)[N-]c2n[n+](-c3cccc(Cl)c3C)no2)cc1` [Example 6, 3-(3-chloro-2-methylphenyl)-1,2,3,4-oxatriazole-5-(N-4-methoxy-phenylsulphonylcarbamoyl)imine], for which the IC50 came out at 670 nM.
